In PubChem BioAssay (NCI):
Where “and” joins values, the source holds several entries; their conditions need not be identical. Equal values may be shown once.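 Dose response: 5 concentrations. Exposure: 48 h. Format: 96-well plates. Endpoint: linear interpolation; highest concentration if not reached. Abbreviation: GI50, concentration required for 50% inhibition of growth. TGI: concentration producing complete growth inhibition.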

Legend:
Assay in all cases: growth of human tumour cells (NCI), 48 h
DU-145 prostate = test system: DU-145 prostate
MDA-MB-435 = test system: MDA-MB-435
PC-3 prostate = test system: PC-3 prostate
T-47D breast = test system: T-47D breast
MDA-MB-231 breast = test system: MDA-MB-231 breast
MDA-N = test system: MDA-N
XF 498 CNS = test system: XF 498 CNS
SNB-78 CNS = test system: SNB-78 CNS

C[C@@H](O)[C@@H](C)Oc1nc(Nc2ccc(S(=N)(=O)C3CC3)cc2)ncc1C(F)(F)F (stereo partly drawn)
GI50 (DU-145 prostate): 0.0258 µM
TGI (DU-145 prostate): > 61.8 µM
GI50 (MDA-MB-435): 0.0335 µM
TGI (MDA-MB-435): 1.22 µM
GI50 (PC-3 prostate): 0.0401 µM
TGI (PC-3 prostate): 0.443 µM
GI50 (T-47D breast): 0.0386 µM
TGI (T-47D breast): 6.62 µM
GI50 (MDA-MB-231 breast): 0.0336 µM
TGI (MDA-MB-231 breast): > 100 µM

N#C/C(=C\c1ccc(O)c(O)c1)C(=O)NCc1ccc(C(F)(F)F)cc1
GI50 (DU-145 prostate): 16.3 µM
TGI (DU-145 prostate): > 62.3 µM
GI50 (MDA-MB-435): 5.69 µM
TGI (MDA-MB-435): 29.4 µM
GI50 (PC-3 prostate): 30.1 µM
TGI (PC-3 prostate): > 100 µM
GI50 (T-47D breast): 8.72 µM
TGI (T-47D breast): 59.8 µM
GI50 (MDA-MB-231 breast): 2.08 µM
TGI (MDA-MB-231 breast): 18.1 µM

Cc1cc2c(cc1Cl)SC(N(c1ccccc1Cl)S(=O)(=O)c1ccc(Br)s1)=NS2(=O)=O
GI50 (DU-145 prostate): 14.5 µM
TGI (DU-145 prostate): 33 µM
GI50 (MDA-MB-435): 13.2 µM
TGI (MDA-MB-435): 31.6 µM
GI50 (PC-3 prostate): 12.5 µM
TGI (PC-3 prostate): 29.7 µM
GI50 (T-47D breast): 4.95 µM
TGI (T-47D breast): 23 µM
GI50 (MDA-MB-231 breast): 18.5 µM
TGI (MDA-MB-231 breast): 61.8 µM

COC(=O)c1cc(-c2ccc3ccccc3c2)[nH]c(=O)c1C#N
TGI (DU-145 prostate): > 100 µM
TGI (MDA-MB-435): > 100 µM
TGI (PC-3 prostate): > 100 µM
TGI (T-47D breast): > 100 µM
TGI (MDA-N): > 100 µM
TGI (MDA-MB-231 breast): > 100 µM

NC(Cc1ccccc1)C(=O)OCN1C(=O)C2C3C=CC(C2C1=O)C1C2C(=O)N(COC(=O)C(N)Cc4ccccc4)C(=O)C2C31 (stereo not drawn)
TGI (XF 498 CNS): 71.7 µM

COc1cc2c(Oc3ccc(NC(=O)C4(C(=O)Nc5ccc(F)cc5)CC4)cc3F)ccnc2cc1OCCCN1CCOCC1
GI50 (DU-145 prostate): 1.52 µM and 1.98 µM
TGI (DU-145 prostate): 4.39 µM and > 10 µM
GI50 (MDA-MB-435): 0.694 µM
TGI (MDA-MB-435): 2.39 µM
GI50 (PC-3 prostate): 1.9 µM and 1.23 µM
TGI (PC-3 prostate): 14.5 µM and > 10 µM
GI50 (T-47D breast): 1.37 µM and 1.44 µM
TGI (T-47D breast): 3.63 µM and > 8.02 µM
GI50 (MDA-MB-231 breast): 1.33 µM and 1.28 µM
TGI (MDA-MB-231 breast): 2.72 µM and 2.74 µM

O=C(O)C1C2C=CC(O2)C1C(=O)NCc1cccnc1 (stereo not drawn)
TGI (DU-145 prostate): > 100 µM
TGI (MDA-MB-435): > 100 µM
TGI (PC-3 prostate): > 100 µM
TGI (T-47D breast): > 100 µM
TGI (MDA-N): > 100 µM
TGI (MDA-MB-231 breast): > 100 µM

Cc1nnc(C[C@@H]2C=C(c3ccc(Cl)cc3)c3ccccc3-n3c(C)nnc32)o1
GI50 (DU-145 prostate): 17.6 µM
TGI (DU-145 prostate): > 100 µM
GI50 (MDA-MB-435): 0.858 µM
TGI (MDA-MB-435): 55.9 µM
GI50 (PC-3 prostate): 3.53 µM
TGI (PC-3 prostate): > 100 µM
GI50 (T-47D breast): 0.719 µM
TGI (T-47D breast): > 92.7 µM
GI50 (MDA-MB-231 breast): 1.5 µM
TGI (MDA-MB-231 breast): > 100 µM

CC(C)C[C@H](CC(=O)O)C(=O)N[C@@H](Cc1c[nH]c2ccccc12)C(=O)N[C@@H](C)c1ccccc1
GI50 (DU-145 prostate): > 25 µM
TGI (DU-145 prostate): > 25 µM
GI50 (MDA-MB-435): > 25 µM
TGI (MDA-MB-435): > 25 µM
GI50 (PC-3 prostate): > 25 µM
TGI (PC-3 prostate): > 25 µM
GI50 (T-47D breast): > 25 µM
TGI (T-47D breast): > 25 µM
GI50 (MDA-MB-231 breast): > 25 µM
TGI (MDA-MB-231 breast): > 25 µM

CC/C=C\C[C@H]1C/C=C2/C(=O)C=C[C@H]2C/C=C\CCCC(=O)O1
GI50 (DU-145 prostate): 1.9 µM
TGI (DU-145 prostate): 7.39 µM
GI50 (MDA-MB-435): 1.66 µM
TGI (MDA-MB-435): 6.04 µM
GI50 (PC-3 prostate): 3.13 µM
TGI (PC-3 prostate): 12.1 µM
GI50 (MDA-MB-231 breast): 3.23 µM
TGI (MDA-MB-231 breast): 14.8 µM

COc1ccccc1-n1cnc(N)c1C(=O)c1cc(OC)c(OC)c(OC)c1
GI50 (DU-145 prostate): 6.65 µM
TGI (DU-145 prostate): > 100 µM
GI50 (MDA-MB-435): 1.07 µM
TGI (MDA-MB-435): 3.81 µM
GI50 (PC-3 prostate): 3.51 µM
TGI (PC-3 prostate): > 100 µM
GI50 (MDA-MB-231 breast): 5.93 µM
TGI (MDA-MB-231 breast): > 100 µM

CCOC(=O)C1(CC(=O)O)CCCC1=O (stereo not drawn)
TGI (DU-145 prostate): > 100 µM
TGI (MDA-MB-435): > 100 µM
TGI (PC-3 prostate): > 100 µM
TGI (T-47D breast): > 100 µM
TGI (MDA-N): > 100 µM
TGI (MDA-MB-231 breast): > 100 µM

COc1ccc2[nH]c(Cl)c(/C=C3/C(=O)Nc4ccccc43)c2c1
GI50 (DU-145 prostate): 0.279 µM
TGI (DU-145 prostate): 2.35 µM
GI50 (MDA-MB-435): 0.251 µM
TGI (MDA-MB-435): 0.708 µM
GI50 (PC-3 prostate): 0.676 µM
TGI (PC-3 prostate): 6.84 µM
GI50 (T-47D breast): 5.4 µM
TGI (T-47D breast): 84.5 µM
GI50 (MDA-MB-231 breast): < 0.0477 µM
TGI (MDA-MB-231 breast): 2.95 µM

NC(N)=NN=c1c(=O)c2ccccc2c1=O
GI50 (DU-145 prostate): 1.9 µM
TGI (DU-145 prostate): 3.39 µM
GI50 (MDA-MB-435): 1.95 µM
TGI (MDA-MB-435): 3.71 µM
GI50 (PC-3 prostate): 12.7 µM
TGI (PC-3 prostate): 29.8 µM
GI50 (T-47D breast): 23.5 µM
TGI (T-47D breast): 50.4 µM
GI50 (MDA-MB-231 breast): 16 µM
TGI (MDA-MB-231 breast): 33.7 µM

O=S(=O)(C1=CC(S(=O)(=O)c2ccccc2)COC1)c1ccccc1 (stereo not drawn)
TGI (XF 498 CNS): > 100 µM

O=C(COc1ccc(/C=C2\Oc3ccc4ccccc4c3C2=O)cc1)c1ccc([N+](=O)[O-])cc1
GI50 (DU-145 prostate): 10.9 µM
TGI (DU-145 prostate): 23.1 µM
GI50 (MDA-MB-435): 12.2 µM
TGI (MDA-MB-435): 29.1 µM
GI50 (PC-3 prostate): 9.36 µM
TGI (PC-3 prostate): 21.3 µM
GI50 (T-47D breast): 2.85 µM
TGI (T-47D breast): 23.8 µM
GI50 (MDA-MB-231 breast): 19 µM
TGI (MDA-MB-231 breast): 71.9 µM

O=C(Nc1ccc(OS(=O)(=O)c2ccc(F)cc2)cc1)C12CC3CC(CC(C3)C1)C2
GI50 (DU-145 prostate): 13.9 µM
TGI (DU-145 prostate): 99.2 µM
GI50 (MDA-MB-435): > 27.9 µM
TGI (MDA-MB-435): > 100 µM
GI50 (PC-3 prostate): 0.647 µM
TGI (PC-3 prostate): > 100 µM
GI50 (T-47D breast): 0.831 µM
TGI (T-47D breast): > 100 µM
GI50 (MDA-MB-231 breast): 4.58 µM
TGI (MDA-MB-231 breast): 52.7 µM

O=c1cc(-c2ccc(Cl)cc2)[nH]c2ccccc12
GI50 (DU-145 prostate): 66.4 µM
TGI (DU-145 prostate): > 100 µM
GI50 (MDA-MB-435): 2.89 µM
TGI (MDA-MB-435): 28.5 µM
GI50 (PC-3 prostate): 35.2 µM
TGI (PC-3 prostate): > 100 µM
GI50 (T-47D breast): 63.2 µM
TGI (T-47D breast): > 100 µM
GI50 (MDA-MB-231 breast): 57 µM
TGI (MDA-MB-231 breast): > 100 µM

O/N=C1/CCCC/C1=C/C=C/c1ccccc1
TGI (SNB-78 CNS): 77.7 µM
TGI (DU-145 prostate): 62.9 µM

C/C=C1/CN2CCC34C(=C(C(=O)OC)C1CC23)Nc1ccc(O)cc14 (stereo not drawn)
TGI (DU-145 prostate): > 100 µM
TGI (MDA-MB-435): > 100 µM
TGI (PC-3 prostate): > 100 µM
TGI (T-47D breast): > 100 µM
TGI (MDA-N): > 100 µM
TGI (MDA-MB-231 breast): > 100 µM

Cc1cc(S(=O)(=O)/N=C(\N)Nc2cccc(O)c2)c(SCc2ccccc2)cc1Cl
GI50 (DU-145 prostate): 24.4 µM
TGI (DU-145 prostate): 81.8 µM
GI50 (MDA-MB-435): 14.2 µM
TGI (MDA-MB-435): 32.5 µM
GI50 (PC-3 prostate): 12.1 µM
TGI (PC-3 prostate): > 100 µM
GI50 (T-47D breast): 19.4 µM
TGI (T-47D breast): 75.7 µM
GI50 (MDA-MB-231 breast): 16.8 µM
TGI (MDA-MB-231 breast): 41.2 µM

CN(C)c1ccc(C(=S)c2ccc(N(C)C)cc2)cc1
GI50 (DU-145 prostate): 20.3 µM
TGI (DU-145 prostate): > 100 µM
GI50 (PC-3 prostate): 22.5 µM
TGI (PC-3 prostate): > 100 µM
GI50 (T-47D breast): 6.34 µM
TGI (T-47D breast): > 100 µM
GI50 (MDA-MB-231 breast): 8 µM
TGI (MDA-MB-231 breast): > 100 µM

CCOC(=O)/C(=C/CC/C(C)=C/CC/C(C)=C/CCc1ccoc1)CC(=O)N1CCCCC1
GI50 (DU-145 prostate): 7.76 µM
TGI (DU-145 prostate): 43.4 µM
GI50 (MDA-MB-435): 3.05 µM
TGI (MDA-MB-435): 10.9 µM
GI50 (PC-3 prostate): 3.1 µM
TGI (PC-3 prostate): 17.9 µM
GI50 (T-47D breast): 2.37 µM
TGI (T-47D breast): 8.65 µM
GI50 (MDA-MB-231 breast): 1.96 µM
TGI (MDA-MB-231 breast): 4.17 µM

O=C1C=CC2(CCCCCCC2=O)CC1 (stereo not drawn)
TGI (SNB-78 CNS): > 100 µM
